The values below come from patent US20130252956A1, “METHODS OF TREATING CANCER” (priority 2010, published 2013).

For data set [1], the system named is unresectable/metastatic HCC. Briefly: Antitumour activity (time to progression by modified RECIST) in patients dosed at the maximum tolerated dose. The class given is in vivo, human. The settings on record: 38 evaluable patients at the maximum tolerated dose (30 mg OD); 95% confidence intervals (2.8, not achieved). The text has this:
To enable a more accurate description of the potential clinical benefit of foretinib in patients with HCC, the method of tumor evaluation was changed to incorporate the mRECIST criteria for HCC as proposed by Llovet et al (Llovet, et al. 2008 supra) and further described by Lencioni & Llovet (Lencioni & Llovet Modified RECIST (mRECIST) Assessment for Hepatocellular Carcinoma. Seminars in Liver Disease. 2010; 30:52-60) in addition to the standard RECIST assessment.
The primary endpoint for assessing antitumor activity will be response rate (CR+PR) according to mRECIST (Lencioni, 2010), assessed by independent, central, radiological review, in subjects with advanced (unresectable and/or metastatic) HCC treated with foretinib at the maximum tolerated dose. […]
Tumor response for subjects with measurable lesions should be assessed routinely as specified in the table below. Serial CT-scans (preferred) or MRI will be evaluated for response (CR or PR) and SD according to mRECIST (Lecioni, 2010) and RECIST 1.0 (Therasse, et al. New guidelines to evaluate the response to treatment in solid tumors. European Organization for Research and Treatment of Cancer, National Cancer Institute of the United States, National Cancer Institute of Canada. J Natl Cancer Inst. 2000; 92:205-16.). […]

Data set [2] can be described thus: Phase I dose escalation/expanded cohort study of oral foretinib in HCC patients: safety, dose-limiting toxicities, maximum tolerated dose. The settings on record: human, in vivo. The method, then: Each treatment cycle will consist of 21 consecutive days. Subjects enrolled in this study will receive oral foretinib administered once daily. Blood samples for PK analysis will be obtained before and after dosing on Days 1 and 15 of Treatment Period 1 in both the Dose-Escalation and Expanded Cohort Phases. For subjects in the Expanded Cohort Phase, no dose will be administered on Days 2 and 3 of Treatment Period 1 to allow the pharmacokinetics of foretinib to be assessed over a 72 hour interval after the first dose. Subjects will continue to receive study drug until disease progression or withdrawal from study because of unacceptable toxicity or other reasons (e.g., withdrawal of consent, noncompliance). Disease progression is defined as objective disease progression according to mRECIST and/or clinical progression (e.g. emergence of significant new disease-related symptoms and/or significant deterioration of pre-existing disease-related symptoms requiring treatment; or deterioration of ECOG performance status by 2 units—see Appendix 3). For the purpose of the final analysis, the duration of the study is planned to be 2 years after enrollment is completed.
Patients with measurable unresectable/metastatic HCC, no prior sorafenib or other multi-kinase inhibitors, ECOG PS 0-1, adequate organ function and Child-Pugh grade A are eligible for enrolment. […]

A further data set deals with first-line advanced HCC. The settings on record: first-line advanced HCC patients treated with sorafenib; 95% CI (2.6, 3.6); cited from earlier work.

As for `COc1cc2c(Oc3ccc(NC(=O)C4(C(=O)Nc5ccc(F)cc5)CC4)cc3F)ccnc2cc1OCCCN1CCOCC1` [foretinib, N^1-{3-fluoro-4-[(6-(methyloxy)-7-{[3-(4-morpholinyl)propyl]oxy}-4-quinolinyl)oxy]phenyl}-N^1-(4-fluorophenyl)-1,1-cyclopropanedicarboxamide], the “Median time-to-progression using modified-RECIST” value in data set [1] came to 4.5 months. In data set [2], the Dose-limiting toxicities result is on record as “no dose limiting toxicities were observed” and the “Dose-limiting toxicities (renal failure, proteinuria), patients affected” value was 2/6.
As for `CNC(=O)c1cc(Oc2ccc(NC(=O)Nc3ccc(Cl)c(C(F)(F)F)c3)cc2)ccn1` [sorafenib, 4-[4-[[4-chloro-3-(trifluoromethyl)phenyl]carbamoylamino]phenoxy]-N-methyl-pyridine-2-carboxamide], the “Median time to progression” value in the data set with first-line advanced HCC is given as 2.8 months.
